Data from article PMC4264242, “Androgen Receptor Antagonists and Anti-Prostate Cancer Activities of Some Newly Synthesized Substituted Fused Pyrazolo-, Triazolo- and Thiazolo-Pyrimidine Derivatives” (International Journal of Molecular Sciences, 2014).
Entries after “also recorded” stand apart in the source; their conditions may differ.

What was measured:
[1] = target: T1, wild type AR in PC-3 cells (Homo sapiens, UniProt P10275); test: Anti-prostate cancer screening, anti-androgenic bioassay (wild type AR transactivation) in PC-3 cells; format: cell-based; conditions: PC-3 cells transfected with wild type AR, 1 nM DHT, 24 h
T1 construct: expressed in transfected cells; host or cells: PC-3 cells (lack endogenous functional AR), transient transfection with SuperFect
T1 sequence (P10275 1-920): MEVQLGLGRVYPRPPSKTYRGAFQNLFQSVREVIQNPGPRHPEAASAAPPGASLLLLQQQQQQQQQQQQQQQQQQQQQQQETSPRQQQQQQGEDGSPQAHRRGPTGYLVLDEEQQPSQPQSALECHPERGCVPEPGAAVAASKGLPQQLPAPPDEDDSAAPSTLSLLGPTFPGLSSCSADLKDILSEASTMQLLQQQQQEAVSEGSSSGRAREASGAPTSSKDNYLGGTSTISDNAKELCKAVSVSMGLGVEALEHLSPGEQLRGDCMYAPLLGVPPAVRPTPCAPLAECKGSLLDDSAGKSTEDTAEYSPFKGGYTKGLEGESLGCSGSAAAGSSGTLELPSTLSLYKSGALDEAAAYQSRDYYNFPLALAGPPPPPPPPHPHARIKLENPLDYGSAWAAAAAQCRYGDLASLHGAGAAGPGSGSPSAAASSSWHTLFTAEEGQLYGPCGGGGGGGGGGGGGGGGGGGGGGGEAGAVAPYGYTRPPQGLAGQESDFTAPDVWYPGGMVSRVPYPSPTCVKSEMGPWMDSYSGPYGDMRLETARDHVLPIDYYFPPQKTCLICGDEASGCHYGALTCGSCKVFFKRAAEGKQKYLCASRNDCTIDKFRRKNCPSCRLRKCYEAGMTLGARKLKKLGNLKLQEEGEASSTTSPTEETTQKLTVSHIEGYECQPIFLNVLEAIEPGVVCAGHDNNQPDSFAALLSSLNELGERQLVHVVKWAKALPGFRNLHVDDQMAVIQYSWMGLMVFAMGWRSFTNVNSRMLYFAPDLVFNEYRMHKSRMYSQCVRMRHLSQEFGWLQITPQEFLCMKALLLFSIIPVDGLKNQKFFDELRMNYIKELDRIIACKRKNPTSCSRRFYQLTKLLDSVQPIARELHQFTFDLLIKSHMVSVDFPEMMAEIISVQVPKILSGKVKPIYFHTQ
Procedure: Human prostate cancer LNCaP and PC-3 cells were maintained in RPMI medium and Dulbecco’s minimum essential medium (DMEM), respectively. Both media were supplemented with penicillin (25 units/mL), streptomycin ([…]), and 10% fetal calf serum. For the androgen receptor transactivation assay, an androgen-dependent reporter gene transcription test was employed as the primary screening for potential anti-androgen identification. This assay was first performed in LNCaP cells, which express a clinically relevant mutant AR. […] Wild type AR transactivation assay was performed in PC-3 host cells, which lack an endogenous, functional AR. The method and conditions of cell and gene transfection have been described previously. In brief, cells were plated in 24-well tissue culture dishes for 24 (PC-3 cells) or 48 (LNCaP cells) h prior to transfection. Subsequently, LNCaP cells were transfected with a reporter gene, MMTV-luciferase, which contains a MMTV-long terminal repeat (LTR) promoter and an androgen receptor binding element, and Renilla Luciferase Control Reporter Vectors 40 (PRL-SV40), which served as an internal control for transfection efficiency. PC-3 cells were transfected with a wild type AR expression plasmid, plasmide gene-5 androgen recptor (pSG5AR), in addition to the above-mentioned MMTV-luciferase reporter gene and PRL-SV40 internal control. SuperFect (Qiagen, Chatsworth, CA, USA) was employed as the transfection reagent following the manufacturer’s recommendations. At the end of a 5-h transfection, the medium was changed to DMEM or RPMI supplemented with 10% charcoal dextran-stripped, i.e., androgen-depleted, serum. After 24 h, the cells were treated with 1 nM of DHT and/or test compounds at the designated concentrations.
After 24 h the cells were harvested for luciferase activity assay using the Dual Luciferase Assay System (Promega, Madison, WI, USA.). The derived data was expressed as relative luciferase activity normalized to the internal luciferase control.

[2] = target: T2, human androgen receptor (Homo sapiens, UniProt P10275); test: In vitro androgen receptor antagonistic activity, DHT-induced MMTV-luciferase reporter assay in AR/CHO#3 cells; format: cell-based; conditions: 0.3 nM DHT
T2 construct: expressed in transfected cells
T2 sequence (P10275 1-920): T1 sequence (P10275 1-920)
Procedure: Chinese Hamster Ovary (CHO) Cells Stably Transfected with Human Androgen Receptor Gene and Mouse Mammary Tumor Virus (MMTV)-Luciferase Reporter Gene or SV40-Luciferase Gene: CHO cells were maintained in alpha-modified Eagle’s medium supplemented with 10% fetal bovine serum (FBS). The culture medium of neomycin-resistant clone cells was supplemented with 10% dextran-coated charcoal-stripped FBS (DCC-FBS) and […] of neomycin. The CHO cells were transfected at 40%–70% confluence in 10-cm petri dishes with a total of […] DNA (plasmide mammalian neow luciferase, (pMAMneoLUC)); Mouse mammary tumor virus (MMTV)-luciferase reporter plasmid and pSG5-hAR; human androgen receptor expression plasmid, or Simian vacuolating virus 40 (SV40-LUC); SV40-luciferase reporter plasmid containing neomycin resistant gene) by calcium phosphate mediated transfection. The stable transfected cells were selected in the culture medium supplemented with neomycin. The selected clone was designated as AR/CHO#3 (human AR gene and MMTV luciferase reporter gene integrated CHO cell) or SV/CHO#10 (SV-40-luciferase reporter gene integrated CHO cell), respectively.
The stable transfected AR/CHO#3 or SV/CHO#10 cells were plated onto 96-well luminoplates (Packard, Palo Alto, CA, USA) at a density of 2 × 10^4 cells/well, respectively.
Four to eight hours later, the medium was changed to a medium containing DMSO, 0.3 nM of DHT, or 0.3 nM of DHT, and the tested compound. At the end of incubation, the medium was removed and the cells were lysed with […] of lysis buffer (25 mM Tris–HCl (pH 7.8), 2 mM dithiothreitol, 2 mM 1,2-cyclo-hexanediamine-tetraacetic acid, 10% glycerol and 1% Triton X-100). Luciferase substrate (20 mM Tris–HCl (pH 7.8), 1.07 mM magnesium carbonate basic (MgCO3)4Mg(OH)2·5H2O, 2.67 mM MgSO4·7H2O, 0.1 mM ethylenediaminetetraacetic acid (EDTA), 33.3 mM dithiothreitol, 0.27 mM CoA, 0.47 mM luciferin, 0.53 mM ATP) was added, and luciferase activity was measured with a ML3000 luminometer (Dynatech Laboratories, El Paso, TX, UAS). AR antagonistic activities were calculated by the formula below: AR antagonistic activity (%) = 100 (I − X) / (I − B) (1) I: (luciferase activity of AR/CHO#3)/(luciferase activity of SV/CHO#10) in the presence of 0.3 nM of DHT, B: (luciferase activity of AR/CHO#3)/(luciferase activity of SV/CHO#10) in the presence of DMSO, X: (luciferase activity of AR/CHO#3)/(luciferase activity of SV/CHO#10) in the presence of 0.3 nM of DHT and the tested compound.
The concentration of compounds showing 50% AR antagonistic activity, or IC50 values, was obtained by nonlinear analysis using a statistical analysis system (SAS).

[3] = AR/CHO#3 cells normalised to SV/CHO#10

Row | Compound | IC50 [1] | IC50 [2, 3] | IC50 PC-3, anti-prostate cancer activity [1] | IC50, in vitro androgen receptor antagonistic activity [2, 3] | IC50, in vitro androgen receptor antagonistic activity ([2]; AR/CHO#3 cells normalised to SV/CHO#10, listed as compound 1)
1 | CCOC1SCC2NC(=O)c3cnn(-c4nc5c(ccc6ccccc65)s4)c3N21 (stereo not shown) [Compound 13, 2-[3-Ethoxy-5-dihydro-6H-7-oxo-[1,3]thiazolo[3,4-b]pyrimidino[4,5-c]pyrazol-2-yl]naphthalino[1,2-d]thiazole] | 146 nM | 29 nM |  |  | 
2 | N#Cc1cnn(-c2nc3c(ccc4ccccc43)s2)c1/N=C\NN [Compound 9, 2-[3-Imidoformic hydrazido-4-cyanopyrazol-2-yl]naphthalino[1,2-d]thiazole] | 269 nM | 75 nM |  |  | 
3 | Nc1nc(=S)[nH]c2c1cnn2-c1nc2c(ccc3ccccc32)s1 [Compound 5, 2-[6-Amino-3H-4-thiopyrimidino[4,5-c]pyrazol-2-yl]naphthalino[1,2-d]thiazole] | 190 nM | 41 nM |  |  | 
4 | NNc1nc2c(ccc3ccccc32)s1 [Compound 1, 1-(naphtho[1,2-d]thiazol-2-yl)hydrazine] |  |  | devoid from any activities; also recorded: Inactive | Inactive | devoid from any activities; also recorded: devoid of any activity
5 | Cc1nc2c3cnn(-c4nc5c(ccc6ccccc65)s4)c3ncn2n1 [Compound 10, 2-[6-Methyl[1,2,4]triazolo[2,3-c]pyrimidino[6,5-c]pyrazol-2-yl]naphthalino[1,2-d]thiazole] | 109 nM | 23 nM |  |  | 
6 | Nc1ncnc2c1cnn2-c1nc2c(ccc3ccccc32)s1 [Compound 3] | 177 nM | 37 nM |  |  | 
7 | N=c1sc(=S)[nH]c2c1cnn2-c1nc2c(ccc3ccccc32)s1 [Compound 6, 2-[6-Imino-3H-4-thiothiazino[4,5-c]pyrazol-2-yl]naphthalino[1,2-d]thiazole] | 201 nM | 44 nM |  |  | 
8 | CCO/C=N\c1c(C#N)cnn1-c1nc2c(ccc3ccccc32)s1 [Compound 8, 2-[3-Ethylimidoformat-4-cyanopyrazol-2-yl]naphthalino[1,2-d]thiazole] | 279 nM | 77 nM |  |  | 
9 | N=c1c2cnn(-c3nc4c(ccc5ccccc54)s3)c2ncn1NC(=O)c1ccccc1 [Compound 11] | 180 nM | 39 nM |  |  | 
10 | N#Cc1cnn(-c2nc3c(ccc4ccccc43)s2)c1N [Compound 2, 2-[3-Amino-4-cyanopyrazol-2-yl]naphthalino[1,2-d]thiazole] | 157 nM | 31 nM |  |  | 
11 | Nc1n[nH]c2c1cnn2-c1nc2c(ccc3ccccc32)s1 [Compound 4] | 179 nM | 34 nM |  |  | 
12 | CCOC1SCC(=O)N1c1c(C#N)cnn1-c1nc2c(ccc3ccccc32)s1 (stereo not shown) [Compound 12, 2-[3-(2-Ethoxy-4-oxo-5-dihydro-1,3-thiazol-3-yl)-4-cyanopyrazol-2-yl]-naphthalino[1,2-d]thiazole] | 289 nM | 91 nM |  |  | 
